What was measured:
Assay in all cases: Test C pre/postemergence
Type in all cases: in vivo
[1] = test system: bermudagrass (Cynodon dactylon); details: Cynodon dactylon, post-emergence, Postemergence
Outline: (§1)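 Rating scale 0–100: 0 means no effect, 100 complete control; taken visually 12 to 14 days post-treatment versus controls. Pre- and postemergence greenhouse applications, postemergence at 1- to 4-leaf stage, non-phytotoxic solvent with surfactant as carrier.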

[2] = test system: cocklebur (Xanthium strumarium); details: Xanthium strumarium, post-emergence, Postemergence
Outline: as §1

[3] = test system: common ragweed (Ambrosia elatior); details: Ambrosia artemisiifolia, post-emergence, Postemergence
Outline: as §1

[4] = test system: goosegrass (Eleusine indica); details: Eleusine indica, post-emergence, Postemergence
Outline: as §1

[5] = test system: johnsongrass (Sorghum halepense); details: Sorghum halepense, post-emergence, Postemergence
Outline: as §1

kochia (Kochia scoparia) = details: Bassia scoparia, post-emergence, Postemergence
Outline: as §1

[6] = test system: lambsquarters (Chenopodium album); details: Chenopodium album, post-emergence, Postemergence
Outline: as §1

[7] = test system: pigweed (Amaranthus retroflexus); details: Amaranthus retroflexus, post-emergence, Postemergence
Outline: as §1

soybean (Glycine max) = details: Glycine max, post-emergence, Postemergence
Outline: as §1

[8] = test system: velvetleaf (Abutilon theophrasti); details: Abutilon theophrasti, post-emergence, Postemergence
Outline: as §1

With `CCOC(=O)c1nc(C2CC2)nc(NN)c1Br` [Compound 42] the pest or weed control at 31 g/ha ([1]; 31 g ai/ha, read-out: Plant response rating (scale of 0 to 100), Bermudagrass) was 0%, the pest or weed control at 62 g/ha ([1]; 62 g ai/ha, scale 0 to 100 (0 no effect, 100 complete control), read-out: Bermudagrass plant response rating) was 0% and the pest or weed control at 125 g/ha ([1]; 125 g ai/ha, scale 0 to 100 (0 no effect, 100 complete control), read-out: Bermudagrass plant response rating) was 0%. It also gave a pest or weed control at 250 g/ha ([1]; 250 g ai/ha, scale 0 to 100, read-out: Plant response rating, Bermudagrass) of 5%, a pest or weed control at 31 g/ha ([2]; 31 g ai/ha, read-out: Plant response rating (scale of 0 to 100), Cocklebur) of 0% and a pest or weed control at 62 g/ha ([2]; 62 g ai/ha, scale 0 to 100 (0 no effect, 100 complete control), read-out: Cocklebur plant response rating) of 0%. It also gave a pest or weed control at 125 g/ha ([2]; 125 g ai/ha, scale 0 to 100 (0 no effect, 100 complete control), read-out: Cocklebur plant response rating) of 5%, a pest or weed control at 250 g/ha ([2]; 250 g ai/ha, scale 0 to 100, read-out: Plant response rating, Cocklebur) of 20% and a pest or weed control at 31 g/ha ([3]; 31 g ai/ha, read-out: Plant response rating (scale of 0 to 100), Ragweed) of 0%. The pest or weed control at 62 g/ha ([3]; 62 g ai/ha, scale 0 to 100 (0 no effect, 100 complete control), read-out: Ragweed plant response rating) was 10%, the pest or weed control at 125 g/ha ([3]; 125 g ai/ha, scale 0 to 100 (0 no effect, 100 complete control), read-out: Ragweed plant response rating) was 40% and the pest or weed control at 250 g/ha ([3]; 250 g ai/ha, scale 0 to 100, read-out: Plant response rating, Ragweed) was 40%. It also gave a pest or weed control at 31 g/ha ([4]; 31 g ai/ha, read-out: Plant response rating (scale of 0 to 100), Goosegrass) of 0%, a pest or weed control at 62 g/ha ([4]; 62 g ai/ha, scale 0 to 100 (0 no effect, 100 complete control), read-out: Goosegrass plant response rating) of 0% and a pest or weed control at 125 g/ha ([4]; 125 g ai/ha, scale 0 to 100 (0 no effect, 100 complete control), read-out: Goosegrass plant response rating) of 0%. It also gave a pest or weed control at 250 g/ha ([4]; 250 g ai/ha, scale 0 to 100, read-out: Plant response rating, Goosegrass) of 0%, a pest or weed control at 31 g/ha ([5]; 31 g ai/ha, read-out: Plant response rating (scale of 0 to 100), Johnsongrass) of 0% and a pest or weed control at 62 g/ha ([5]; 62 g ai/ha, scale 0 to 100 (0 no effect, 100 complete control), read-out: Johnsongrass plant response rating) of 0%. It also gave a pest or weed control at 125 g/ha ([5]; 125 g ai/ha, scale 0 to 100 (0 no effect, 100 complete control), read-out: Johnsongrass plant response rating) of 0%, a pest or weed control at 250 g/ha ([5]; 250 g ai/ha, scale 0 to 100, read-out: Plant response rating, Johnsongrass) of 10% and a pest or weed control at 31 g/ha (kochia (Kochia scoparia); 31 g ai/ha, read-out: Plant response rating (scale of 0 to 100), Kochia) of 5%. For the same compound, the pest or weed control at 62 g/ha (kochia (Kochia scoparia); 62 g ai/ha, scale 0 to 100 (0 no effect, 100 complete control), read-out: Kochia plant response rating) was 30%, the pest or weed control at 125 g/ha (kochia (Kochia scoparia); 125 g ai/ha, scale 0 to 100 (0 no effect, 100 complete control), read-out: Kochia plant response rating) was 50% and the pest or weed control at 250 g/ha (kochia (Kochia scoparia); 250 g ai/ha, scale 0 to 100, read-out: Plant response rating, Kochia) was 85%. For the same compound, the pest or weed control at 31 g/ha ([6]; 31 g ai/ha, read-out: Plant response rating (scale of 0 to 100), Lambsquarters) was 10%, the pest or weed control at 62 g/ha ([6]; 62 g ai/ha, scale 0 to 100 (0 no effect, 100 complete control), read-out: Lambsquarters plant response rating) was 20% and the pest or weed control at 125 g/ha ([6]; 125 g ai/ha, scale 0 to 100 (0 no effect, 100 complete control), read-out: Lambsquarters plant response rating) was 20%. The pest or weed control at 250 g/ha ([6]; 250 g ai/ha, scale 0 to 100, read-out: Plant response rating, Lambsquarters) was 25%, the pest or weed control at 31 g/ha ([7]; 31 g ai/ha, read-out: Plant response rating (scale of 0 to 100), Pigweed) was 10% and the pest or weed control at 62 g/ha ([7]; 62 g ai/ha, scale 0 to 100 (0 no effect, 100 complete control), read-out: Pigweed plant response rating) was 10%. It also gave a pest or weed control at 125 g/ha ([7]; 125 g ai/ha, scale 0 to 100 (0 no effect, 100 complete control), read-out: Pigweed plant response rating) of 20%, a pest or weed control at 250 g/ha ([7]; 250 g ai/ha, scale 0 to 100, read-out: Plant response rating, Pigweed) of 30% and a plant injury at 31 g/ha (soybean (Glycine max); 31 g ai/ha, read-out: Plant response rating (scale of 0 to 100), Soybean) of 10%. For the same compound, the plant injury at 62 g/ha (soybean (Glycine max); 62 g ai/ha, scale 0 to 100 (0 no effect, 100 complete control), read-out: Soybean plant response rating) was 30%, the plant injury at 125 g/ha (soybean (Glycine max); 125 g ai/ha, scale 0 to 100 (0 no effect, 100 complete control), read-out: Soybean plant response rating) was 40% and the plant injury at 250 g/ha (soybean (Glycine max); 250 g ai/ha, scale 0 to 100, read-out: Plant response rating, Soybean) was 70%. It also gave a pest or weed control at 31 g/ha ([8]; 31 g ai/ha, read-out: Plant response rating (scale of 0 to 100), Velvetleaf) of 0%, a pest or weed control at 62 g/ha ([8]; 62 g ai/ha, scale 0 to 100 (0 no effect, 100 complete control), read-out: Velvetleaf plant response rating) of 0% and a pest or weed control at 125 g/ha ([8]; 125 g ai/ha, scale 0 to 100 (0 no effect, 100 complete control), read-out: Velvetleaf plant response rating) of 0%. It also gave a pest or weed control at 250 g/ha ([8]; 250 g ai/ha, scale 0 to 100, read-out: Plant response rating, Velvetleaf) of 20%.
